Assay results taken from ChEMBL document CHEMBL1201862, “PubChem BioAssay data set” (2004).
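48-hour exposure; five concentrations; linearly interpolated endpoints. At the GI50, growth is halved.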 The source made the active and inactive calls. Rule as the data show it: active = GI50 up to about 1.1 µM and inactive = higher.

Legend:
Assay in all cases: NCI-60 cell line screen, 48 h
[1] = system: ACHN
[2] = system: CCRF-CEM
[3] = system: COLO 205
[4] = system: EKVX
[5] = system: HCT-116
[6] = system: HL-60
[7] = system: HOP-92
[8] = system: HT-29
[9] = system: LOX IMVI
[10] = system: NCI-H23
[11] = system: NCI-H460
[12] = system: OVCAR-4
[13] = system: OVCAR-5
[14] = system: SK-MEL-28
[15] = system: SR
[16] = system: U-251
[17] = system: UACC-62
[18] = system: SW-620

Measured: GI50

COC(=O)C(=O)C(C(=O)C=C(C)C)C(=O)C(=O)Nc1ccc(Cl)cc1C (stereo not given)
inactive: [1] > 100 µM | [2] 87.5 µM | [3] > 100 µM | [4] > 100 µM | [5] > 100 µM | [6] > 100 µM | [7] > 100 µM | [8] > 100 µM | [9] > 100 µM | [10] > 100 µM | [11] > 100 µM | [12] > 100 µM | [13] > 100 µM | [14] > 100 µM | [15] 23.3 µM | [16] > 100 µM | [17] > 100 µM

O=C(CCN1CCCCC1CCO)Nc1ccc2c(c1)C(=O)c1ccc(NC(=O)CCN3CCCCC3CCO)cc1C2=O (stereo not given)
inactive: [1] 7.93 µM | [2] 2.62 µM | [3] 2.11 µM | [4] 7.41 µM | [5] 4.11 µM | [6] 3.24 µM | [7] 13.2 µM | [8] 5.52 µM | [9] 2.99 µM | [10] 15 µM | [11] 3.6 µM | [12] 12.4 µM | [13] 17.7 µM | [14] 10.1 µM | [15] 4.14 µM | [18] 2.12 µM | [16] 4.08 µM | [17] 2.44 µM

Cn1ncnc1CCc1ccccc1
inactive: [1] > 100 µM | [2] > 100 µM | [3] > 100 µM | [5] > 100 µM | [6] > 100 µM | [7] > 100 µM | [8] > 100 µM | [9] > 100 µM | [10] > 100 µM | [11] > 100 µM | [12] > 100 µM | [13] > 100 µM | [14] > 100 µM | [15] > 100 µM | [18] > 100 µM | [16] > 100 µM | [17] > 100 µM

NS(=O)(=O)c1ccc(NC(=O)c2cccn3c(=O)c4ccccc4nc23)cc1
inactive: [1] > 100 µM | [2] > 100 µM | [3] > 100 µM | [4] > 100 µM | [5] > 100 µM | [6] > 100 µM | [7] > 100 µM | [8] > 100 µM | [9] 86.3 µM | [10] > 100 µM | [11] > 100 µM | [12] > 100 µM | [14] > 100 µM | [15] 79.8 µM | [18] > 100 µM | [16] > 100 µM | [17] > 100 µM

COc1ccc(O)cc1C=O
inactive: [1] > 100 µM | [2] 44 µM | [3] > 100 µM | [4] > 100 µM | [5] 50 µM | [6] 21.4 µM | [7] > 100 µM | [8] > 100 µM | [9] 54 µM | [10] > 100 µM | [11] > 100 µM | [12] > 100 µM | [13] > 100 µM | [14] 65.3 µM | [15] 18.8 µM | [18] 47.5 µM | [16] > 100 µM | [17] 32.7 µM

COc1ccc(C2S/C(=C\c3cccc(O)c3)C(=O)N2NC(=O)Cc2ccccc2)cc1 (stereo not given)
inactive: [1] > 100 µM | [2] > 100 µM | [3] > 100 µM | [5] > 100 µM | [6] > 100 µM | [7] > 100 µM | [8] > 100 µM | [9] > 100 µM | [10] > 100 µM | [11] > 100 µM | [12] > 100 µM | [13] > 100 µM | [15] > 100 µM | [18] > 100 µM | [16] > 100 µM | [17] > 100 µM

Cc1c(-c2nnc(-c3ccc(Cl)cc3)o2)c(=O)n(-c2ccccc2)n1C
inactive: [1] > 100 µM | [2] > 100 µM | [3] > 100 µM | [4] > 100 µM | [5] > 100 µM | [6] > 100 µM | [7] > 100 µM | [8] > 100 µM | [9] > 100 µM | [10] > 100 µM | [11] > 100 µM | [12] > 100 µM | [14] > 100 µM | [15] > 100 µM | [18] > 100 µM | [16] > 100 µM | [17] > 100 µM

CN(C)c1ccc(/C=C(\C#N)C(=O)c2ccccc2)cc1Br
inactive: [1] > 100 µM | [2] 35.6 µM | [3] > 100 µM | [4] > 100 µM | [5] > 100 µM | [6] 25.7 µM | [7] > 100 µM | [8] > 100 µM | [9] 25.5 µM | [10] > 100 µM | [11] > 100 µM | [12] > 100 µM | [13] > 100 µM | [14] 46.5 µM | [15] 38.5 µM | [18] 66.1 µM | [16] > 100 µM | [17] 51.3 µM

CCCCCC/C=C1\CCC(CN2CCCC2)C1=O (stereo not given)
inactive: [1] 18.3 µM | [2] 4.49 µM | [3] 16.4 µM | [4] 18.5 µM | [5] 11.9 µM | [6] 2.33 µM | [7] 16.7 µM | [8] 13.9 µM | [9] 8.3 µM | [10] 16.9 µM | [11] 24.6 µM | [12] 22.8 µM | [13] 18.3 µM | [14] 19.1 µM | [15] 2.99 µM | [18] > 28.2 µM | [16] 15.6 µM | [17] 18.2 µM

COC(=O)CC[C@]12C[C@]13CC[C@]1(C)C4C(C)C[C@]5(CC(C)C(=O)O5)OC4CC1(C)C3CCC2C(C)(C)O (stereo not given in full)
inactive: [1] 88.3 µM | [3] 74.8 µM | [4] > 100 µM | [5] 85.7 µM | [6] 23.3 µM | [7] 23.7 µM | [8] > 100 µM | [9] 32.5 µM | [10] 97.3 µM | [11] 68.7 µM | [12] 95.9 µM | [13] > 100 µM | [14] 84.9 µM | [15] 42.2 µM | [18] 56 µM | [16] 62.2 µM | [17] > 10 µM

C[C@]12CCC(=O)C[C@H]1CCC(O)[C@@H]2Br (stereo not given in full)
inactive: [1] > 100 µM | [2] > 100 µM | [3] > 100 µM | [5] > 100 µM | [6] > 100 µM | [7] > 100 µM | [8] > 100 µM | [9] > 100 µM | [10] > 100 µM | [11] > 100 µM | [12] > 100 µM | [13] > 100 µM | [14] > 100 µM | [15] > 100 µM | [18] > 100 µM | [16] > 100 µM | [17] > 100 µM
